Patent US20100227872A1, “PYRAZINE DERIVATIVES” (priority 2007, published 2010)

Columns and labels:
Assay type in all cases: cell-based
[1] = system: tetrodotoxin-sensitive voltage-gated sodium channels including NaV1.2, NaV1.3 and NaV1.7; experiment: TTX-S Assay in SHSY-5Y cell line (VIPR, veratridine opener); conditions: read-out: TTX-S IC50, veratridine 50 μM as opener, average of replicates
Human Nav1.8 = target: T1, Human Nav1.8 (Homo sapiens, UniProt Q9Y5Y9); experiment: VIPR Assay for Nav1.8 Compounds (FRET membrane potential, deltamethrin opener); conditions: HEK293 cells expressing Human Nav1.8; deltamethrin as opener; average of replicates
T1 construct: expressed in transfected cells; host or cells: HEK293 (selected with Geneticine)

Human Nav1.5 = target: T2, Human Nav1.5 (Homo sapiens, UniProt Q14524); experiment: Nav1.5 Assay (VIPR, as Nav1.8 assay); conditions: HEK293 cells expressing Human Nav1.5; average of replicates
T2 construct: expressed in transfected cells; host or cells: HEK293
Method: The Nav1.5 assay is performed in HEK293 cells expressing Human Nav1.5 in the same way as the Nav1.8 assay described above.

T1 sequence (Q9Y5Y9 whole entry): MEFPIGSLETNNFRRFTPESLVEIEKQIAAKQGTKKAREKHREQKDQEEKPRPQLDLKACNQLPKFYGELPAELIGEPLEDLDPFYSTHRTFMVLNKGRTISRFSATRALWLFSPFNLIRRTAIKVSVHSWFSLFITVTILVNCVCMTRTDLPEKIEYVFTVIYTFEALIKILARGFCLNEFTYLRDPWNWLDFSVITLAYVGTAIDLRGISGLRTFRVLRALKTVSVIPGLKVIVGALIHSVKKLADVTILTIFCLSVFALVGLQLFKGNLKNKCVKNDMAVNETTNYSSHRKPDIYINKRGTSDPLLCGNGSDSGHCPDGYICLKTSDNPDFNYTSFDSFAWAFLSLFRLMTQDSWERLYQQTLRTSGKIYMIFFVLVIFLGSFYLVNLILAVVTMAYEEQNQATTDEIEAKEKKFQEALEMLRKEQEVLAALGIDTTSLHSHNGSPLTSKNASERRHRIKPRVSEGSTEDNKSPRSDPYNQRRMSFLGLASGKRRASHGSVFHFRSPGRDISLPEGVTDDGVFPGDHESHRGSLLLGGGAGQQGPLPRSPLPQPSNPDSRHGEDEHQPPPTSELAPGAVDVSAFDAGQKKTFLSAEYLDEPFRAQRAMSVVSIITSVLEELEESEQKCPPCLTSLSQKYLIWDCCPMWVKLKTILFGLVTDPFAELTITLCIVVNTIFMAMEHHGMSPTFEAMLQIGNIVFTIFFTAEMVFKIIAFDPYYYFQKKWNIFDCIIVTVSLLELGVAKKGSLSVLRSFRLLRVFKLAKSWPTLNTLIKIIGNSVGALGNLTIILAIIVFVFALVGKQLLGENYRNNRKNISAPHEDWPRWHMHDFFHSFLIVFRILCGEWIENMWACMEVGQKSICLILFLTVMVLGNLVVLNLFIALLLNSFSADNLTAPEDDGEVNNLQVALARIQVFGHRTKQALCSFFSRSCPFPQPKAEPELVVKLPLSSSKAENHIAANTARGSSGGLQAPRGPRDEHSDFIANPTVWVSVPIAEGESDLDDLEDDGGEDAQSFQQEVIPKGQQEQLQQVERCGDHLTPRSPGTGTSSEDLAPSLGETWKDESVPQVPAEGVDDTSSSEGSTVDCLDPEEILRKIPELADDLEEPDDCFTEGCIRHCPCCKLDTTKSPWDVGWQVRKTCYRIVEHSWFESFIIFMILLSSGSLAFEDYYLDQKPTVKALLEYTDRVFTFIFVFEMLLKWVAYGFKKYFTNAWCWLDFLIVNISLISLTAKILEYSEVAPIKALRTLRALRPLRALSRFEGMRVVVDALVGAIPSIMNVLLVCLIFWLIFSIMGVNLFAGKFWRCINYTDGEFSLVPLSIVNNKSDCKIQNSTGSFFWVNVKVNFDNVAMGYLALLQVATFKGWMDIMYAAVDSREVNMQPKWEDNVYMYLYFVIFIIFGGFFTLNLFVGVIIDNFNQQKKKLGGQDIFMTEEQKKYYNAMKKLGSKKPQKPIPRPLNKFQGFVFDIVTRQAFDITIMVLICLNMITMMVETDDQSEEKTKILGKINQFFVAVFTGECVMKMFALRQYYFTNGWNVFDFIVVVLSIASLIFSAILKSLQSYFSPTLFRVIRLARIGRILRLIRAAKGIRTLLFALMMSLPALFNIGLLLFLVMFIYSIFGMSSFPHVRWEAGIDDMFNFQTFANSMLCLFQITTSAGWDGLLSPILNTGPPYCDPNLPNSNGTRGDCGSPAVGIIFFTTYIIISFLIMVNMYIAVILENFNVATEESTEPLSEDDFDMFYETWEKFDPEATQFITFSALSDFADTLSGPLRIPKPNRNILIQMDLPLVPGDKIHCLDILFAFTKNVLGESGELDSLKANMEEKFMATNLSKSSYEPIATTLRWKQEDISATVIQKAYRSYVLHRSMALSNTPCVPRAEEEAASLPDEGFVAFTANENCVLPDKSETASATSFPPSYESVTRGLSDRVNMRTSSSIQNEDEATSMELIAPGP
T2 sequence (Q14524 whole entry): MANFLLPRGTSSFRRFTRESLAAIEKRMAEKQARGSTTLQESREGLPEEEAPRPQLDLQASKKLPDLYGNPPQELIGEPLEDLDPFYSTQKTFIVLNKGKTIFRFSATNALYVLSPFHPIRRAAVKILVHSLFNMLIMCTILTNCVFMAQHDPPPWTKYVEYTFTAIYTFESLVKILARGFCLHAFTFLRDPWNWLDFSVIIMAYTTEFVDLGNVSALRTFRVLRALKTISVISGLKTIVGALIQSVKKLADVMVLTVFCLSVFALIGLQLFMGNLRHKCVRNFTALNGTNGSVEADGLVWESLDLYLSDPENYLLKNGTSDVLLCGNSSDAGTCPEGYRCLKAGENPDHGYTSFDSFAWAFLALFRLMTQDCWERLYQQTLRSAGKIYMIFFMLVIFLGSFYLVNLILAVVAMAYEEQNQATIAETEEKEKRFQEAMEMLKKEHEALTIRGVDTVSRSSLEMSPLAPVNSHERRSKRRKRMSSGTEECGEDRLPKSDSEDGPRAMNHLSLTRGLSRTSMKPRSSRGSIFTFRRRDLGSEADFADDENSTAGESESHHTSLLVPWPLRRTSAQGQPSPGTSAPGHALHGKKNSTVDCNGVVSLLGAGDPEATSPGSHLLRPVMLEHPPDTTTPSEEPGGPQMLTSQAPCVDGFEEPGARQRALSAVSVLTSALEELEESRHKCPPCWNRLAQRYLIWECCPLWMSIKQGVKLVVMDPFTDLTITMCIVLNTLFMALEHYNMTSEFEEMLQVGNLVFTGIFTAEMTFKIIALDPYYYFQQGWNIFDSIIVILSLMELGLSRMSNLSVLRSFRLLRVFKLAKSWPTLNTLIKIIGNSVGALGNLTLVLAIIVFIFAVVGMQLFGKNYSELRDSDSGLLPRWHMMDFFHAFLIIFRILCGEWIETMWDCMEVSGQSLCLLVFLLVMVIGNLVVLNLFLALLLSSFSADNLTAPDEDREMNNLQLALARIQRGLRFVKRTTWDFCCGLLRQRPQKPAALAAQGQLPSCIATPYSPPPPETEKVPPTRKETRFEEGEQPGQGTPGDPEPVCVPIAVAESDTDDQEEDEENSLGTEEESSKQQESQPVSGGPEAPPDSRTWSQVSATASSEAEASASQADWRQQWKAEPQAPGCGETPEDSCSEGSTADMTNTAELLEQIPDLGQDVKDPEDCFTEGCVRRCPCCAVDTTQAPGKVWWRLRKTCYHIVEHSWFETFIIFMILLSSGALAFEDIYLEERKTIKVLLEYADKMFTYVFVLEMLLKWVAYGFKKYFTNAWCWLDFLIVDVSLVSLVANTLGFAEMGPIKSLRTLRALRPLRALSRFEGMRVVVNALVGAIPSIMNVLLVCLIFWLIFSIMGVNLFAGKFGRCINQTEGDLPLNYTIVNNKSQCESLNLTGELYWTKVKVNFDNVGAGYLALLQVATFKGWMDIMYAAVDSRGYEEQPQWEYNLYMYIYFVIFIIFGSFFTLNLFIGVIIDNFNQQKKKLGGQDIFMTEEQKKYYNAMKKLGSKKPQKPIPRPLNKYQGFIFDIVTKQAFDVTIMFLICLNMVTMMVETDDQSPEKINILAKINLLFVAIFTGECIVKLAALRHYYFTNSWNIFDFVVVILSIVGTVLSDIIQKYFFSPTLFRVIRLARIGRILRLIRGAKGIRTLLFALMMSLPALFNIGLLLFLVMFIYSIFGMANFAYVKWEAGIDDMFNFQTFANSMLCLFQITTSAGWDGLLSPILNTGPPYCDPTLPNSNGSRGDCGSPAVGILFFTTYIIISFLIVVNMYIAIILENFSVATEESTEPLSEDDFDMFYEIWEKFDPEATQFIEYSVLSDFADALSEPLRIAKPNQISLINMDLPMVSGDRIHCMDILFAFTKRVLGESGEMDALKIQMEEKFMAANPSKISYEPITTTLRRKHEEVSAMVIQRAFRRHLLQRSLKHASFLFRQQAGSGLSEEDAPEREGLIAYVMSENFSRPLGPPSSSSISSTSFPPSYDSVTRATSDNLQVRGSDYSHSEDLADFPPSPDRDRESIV

**Q.** With `Cc1nocc1C(=O)Nc1cnc(-c2ccccc2OC(F)(F)F)c(N)n1` [Example 1, N-{6-Amino-5-[2-(trifluoromethoxy)phenyl]pyrazin-2-yl}-3-methylisoxazole-4-carboxamide] as the molecule, how does the IC50 [1] read?
**A.** Its IC50 is 30 µM.

**Q.** What about the IC50 (Human Nav1.8) of the same molecule?
**A.** The IC50 was 3.6 µM.

**Q.** And the IC50 (Human Nav1.5)?
**A.** Its IC50 is > 32 µM.

**Q.** `Cc1nocc1C(=O)Nc1cnc(-c2ccccc2C(F)(F)F)c(N)n1` [Example 2, N-{6-Amino-5-[2-(trifluoromethyl)phenyl]pyrazin-2-yl}-3-methylisoxazole-4-carboxamide] was tested. Which IC50 [1] did it give?
**A.** The IC50 was > 32 µM.

**Q.** What about the IC50 (Human Nav1.8) of the same molecule?
**A.** The IC50 was 8.7 µM.

**Q.** How did the IC50 [1] turn out when `Cc1nocc1C(=O)Nc1cnc(-c2cc(Cl)ccc2OC(F)(F)F)c(N)n1` [Example 3, N-{6-Amino-5-[5-chloro-2-(trifluoromethoxy)phenyl]pyrazin-2-yl}-3-methylisoxazole-4-carboxamide] was run?
**A.** Its IC50 is 16 µM.

**Q.** What about the IC50 (Human Nav1.8) of the same molecule?
**A.** The IC50 was 4.3 µM.

**Q.** What about the IC50 (Human Nav1.5) of the same molecule?
**A.** The IC50 was > 32 µM.

**Q.** With `CCn1nccc1C(=O)Nc1cnc(-c2ccccc2OC(F)(F)F)c(N)n1` [Example 4, N-{6-Amino-5-[2-(trifluoromethoxy)phenyl]pyrazin-2-yl}-1-ethyl-1H-pyrazole-5-carboxamide] as the molecule, how does the IC50 [1] read?
**A.** The IC50 was > 32 µM.

**Q.** And the IC50 (Human Nav1.8)?
**A.** The IC50 was 27 µM.

**Q.** And the IC50 (Human Nav1.5)?
**A.** The IC50 was > 32 µM.

**Q.** With `CC(C)n1nccc1C(=O)Nc1cnc(-c2ccccc2OC(F)(F)F)c(N)n1` [Example 5, N-{6-Amino-5-[2-(trifluoromethoxy)phenyl]pyrazin-2-v1}-1-isopropyl-1H-pyrazole-5-carboxamide] as the molecule, how does the IC50 [1] read?
**A.** Its IC50 is 29 µM.

**Q.** And the IC50 (Human Nav1.8)?
**A.** The IC50 was 19 µM.

**Q.** And the IC50 (Human Nav1.5)?
**A.** The IC50 was > 32 µM.

**Q.** How did the IC50 [1] turn out when `COCc1nocc1C(=O)Nc1cnc(-c2ccccc2OC(F)(F)F)c(N)n1` [Example 6, N-{6-Amino-5-[2-(trifluoromethoxy)phenyl]pyrazin-2-yl}-3-(methoxymethyl)isoxazole-4-carboxamide] was run?
**A.** Its IC50 is 19 µM.

**Q.** What about the IC50 (Human Nav1.8) of the same molecule?
**A.** The IC50 was 20 µM.

**Q.** What about the IC50 (Human Nav1.5) of the same molecule?
**A.** Its IC50 is > 32 µM.

**Q.** Which IC50 [1] does the source give for `COCc1nocc1C(=O)Nc1cnc(-c2cc(Cl)ccc2OC(F)(F)F)c(N)n1` [Example 7] here?
**A.** Its IC50 is 17 µM.

**Q.** And the IC50 (Human Nav1.8)?
**A.** The IC50 was 4.6 µM.

**Q.** And the IC50 (Human Nav1.5)?
**A.** The IC50 was 21 µM.

**Q.** Which IC50 (Human Nav1.8) does the source give for `COCc1nocc1C(=O)Nc1cnc(-c2cc(F)ccc2C(F)(F)F)c(N)n1` [Example 8, N-{6-Amino-5-[5-fluoro-2-(trifluoromethyl)phenyl]pyrazin-2-yl}-3-(methoxymethyl)isoxazole-4-carboxamide] here?
**A.** The IC50 was 11 µM.

**Q.** What about the IC50 (Human Nav1.5) of the same molecule?
**A.** The IC50 was > 32 µM.

**Q.** Which results are given for `COCc1oncc1C(=O)Nc1cnc(-c2ccccc2OC(F)(F)F)c(N)n1` [Example 9, N-{6-Amino-5-[2-(trifluoromethoxy)phenyl]pyrazin-2-yl}-5-(methoxymethyl)isoxazole-4-carboxamide]?
**A.** IC50 [1]: 30 µM; IC50 (Human Nav1.8): 20 µM; IC50 (Human Nav1.5): > 32 µM

**Q.** What does the source list for `Cc1nocc1C(=O)Nc1cnc(-c2cc(F)ccc2C(F)(F)F)c(N)n1` [Example 10, N-{6-amino-5-[5-fluoro-2-(trifluoromethyl)phenyl]pyrazin-2-yl}-3-methylisoxazole-4-carboxamide]?
**A.** IC50 [1]: > 32 µM; IC50 (Human Nav1.8): 4.7 µM; IC50 (Human Nav1.5): > 32 µM

**Q.** Which IC50 [1] does the source give for `Cn1nccc1C(=O)Nc1cnc(-c2cc(Cl)ccc2OC(F)(F)F)c(N)n1` [Example 11, N-{6-Amino-5-[5-chloro-2-(trifluoromethoxy)phenyl]pyrazin-2-yl}-methyl-1H-pyrazole-5-carboxamide] here?
**A.** Its IC50 is > 32 µM.

**Q.** What about the IC50 (Human Nav1.8) of the same molecule?
**A.** The IC50 was 12 µM.

**Q.** And the IC50 (Human Nav1.5)?
**A.** The IC50 was > 32 µM.

**Q.** `Nc1nc(NC(=O)c2conc2C(F)(F)F)cnc1-c1ccccc1OC(F)(F)F` [Example 12, N-{6-Amino-5-[2-(trifluoromethoxy)phenyl]pyrazin-2-yl}-3-(trifluoromethyl)isoxazole-4-carboxamide] was tested. Which IC50 [1] did it give?
**A.** The IC50 was 21 µM.

**Q.** And the IC50 (Human Nav1.8)?
**A.** The IC50 was 2.8 µM.

**Q.** And the IC50 (Human Nav1.5)?
**A.** Its IC50 is > 32 µM.

**Q.** With `Cc1nocc1C(=O)Nc1cnc(-c2cc(F)ccc2OC(F)(F)F)c(N)n1` [Example 13, N-{6-Amino-5-[5-fluoro-2-(trifluoromethoxy)phenyl]pyrazin-2-yl}-3-methylisoxazole-4-carboxamide] as the molecule, how does the IC50 [1] read?
**A.** The IC50 was > 32 µM.

**Q.** And the IC50 (Human Nav1.8)?
**A.** The IC50 was 3.8 µM.

**Q.** What about the IC50 (Human Nav1.5) of the same molecule?
**A.** The IC50 was > 32 µM.

**Q.** How did the IC50 [1] turn out when `Nc1nc(NC(=O)c2conc2C(F)(F)F)cnc1-c1cc(F)ccc1C(F)(F)F` [Example 14, N-{6-Amino-5-[5-fluoro-2-(trifluoromethyl)phenyl]ovrazin-2-yl}-3-trifluoromethylisoxazole-4-carboxamide] was run?
**A.** Its IC50 is 31 µM.

**Q.** What about the IC50 (Human Nav1.8) of the same molecule?
**A.** The IC50 was 2.5 µM.

**Q.** And the IC50 (Human Nav1.5)?
**A.** Its IC50 is > 32 µM.

**Q.** Which results are given for `Cn1nccc1C(=O)Nc1cnc(-c2cc(F)ccc2OC(F)(F)F)c(N)n1` [Example 15]?
**A.** IC50 [1]: > 32 µM; IC50 (Human Nav1.8): 16 µM; IC50 (Human Nav1.5): > 32 µM

**Q.** Which IC50 (Human Nav1.8) does the source give for `CCOc1ccc(OC(F)(F)F)c(-c2ncc(NC(=O)c3ccnn3C)nc2N)c1` [Example 16, N-{6-Amino-5-[5-ethoxy-2-(trifluoromethoxy)phenyl]pyrazin-2-yl}-1-methyl-1H-pyrazole-5-carboxamide] here?
**A.** Its IC50 is 19 µM.

**Q.** What about the IC50 (Human Nav1.5) of the same molecule?
**A.** Its IC50 is > 32 µM.

**Q.** For `CCOc1ccc(OC(F)(F)F)c(-c2ncc(NC(=O)c3conc3C)nc2N)c1` [Example 17, N-(6-Amino-5-[5-ethoxy-2-{trifluoromethoxy)phenyl]pyrazin-2-yl}-3-methylisoxazole-4-carboxamide], which IC50 (Human Nav1.8) is on record?
**A.** Its IC50 is 1.9 µM.

**Q.** What about the IC50 (Human Nav1.5) of the same molecule?
**A.** The IC50 was > 32 µM.
